Drawing on PubChem BioAssay (NCI), this text covers TGI for eight compounds.

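Tested at 5 concentrations; 48 h exposure; 96-well plates; endpoints linearly interpolated, else capped at highest concentration. The concentration for full growth arrest is given as TGI.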

Among the test systems are SW-620 colon; KM12 colon; OVCAR-5 ovarian; UACC-62 melanoma; MDA-MB-231 breast; SF-268 CNS; SNB-75 CNS; SF-539 CNS; EKVX NSCLC; NCI-H522 lung; RPMI-8226 leukemia; SF-295 CNS; A549 NSCLC; OVCAR-4 ovarian; T-47D breast; OVCAR-8 ovarian; SNB-19 CNS; MDA-N.
What all share (experiment): inhibition of tumour cell growth, NCI panel, 48 h

In the case of `O=C(N=S(NC(=O)c1ccccc1)C(Cl)(Cl)Cl)c1ccccc1` (centres undefined), the TGI with SW-620 colon was 15.9 µM; with KM12 colon, over 100 µM; in the assay on OVCAR-5 ovarian it was 50.7 µM; with UACC-62 melanoma it was over 100 µM; with MDA-MB-231 breast, over 100 µM; with SF-268 CNS, over 100 µM. Moreover, the TGI in the assay with SNB-75 CNS was over 100 µM; with SF-539 CNS, 48.1 µM; with EKVX NSCLC it was 39.2 µM; with NCI-H522 lung, 51.1 µM; with RPMI-8226 leukemia, over 100 µM; in the assay on SF-295 CNS, over 59 µM. Moreover, the TGI was over 100 µM in the assay with A549 NSCLC; 38 µM in the assay with OVCAR-4 ovarian; 67.5 µM with T-47D breast; 38.8 µM in the assay on OVCAR-8 ovarian; over 100 µM in the assay on SNB-19 CNS; over 100 µM in the assay on MDA-N.
Regarding `COC(=O)C1C(OC(=O)c2ccccc2)CC2CCC1N2C(N)=O` (centres undefined), the TGI in the assay on SW-620 colon, in the assay on KM12 colon, in the assay with OVCAR-5 ovarian, in the assay with UACC-62 melanoma, with MDA-MB-231 breast and in the assay on SF-268 CNS was over 100 µM in each case. For the same compound, the TGI in the assay with SNB-75 CNS, in the assay with SF-539 CNS, in the assay with EKVX NSCLC, in the assay on NCI-H522 lung, in the assay with RPMI-8226 leukemia and in the assay on SF-295 CNS was over 100 µM throughout. Further, the TGI in the assay with A549 NSCLC, in the assay on OVCAR-4 ovarian, in the assay with T-47D breast, in the assay with OVCAR-8 ovarian, in the assay with SNB-19 CNS and in the assay with MDA-N was over 100 µM each time.
On to `CC(=O)OC1C(O)COC(O[C@H]2CC[C@]34C[C@]35CC[C@]3(C)C([C@@]6(C)CC[C@@H](C(C)(C)O)O6)[C@@H](O)C[C@@]3(C)C5C[C@H](OC3OCC(O)C(O)C3O)[C@H]4C2(C)C)C1OC1OCC(O)C(O)C1O` (some centres undefined), for which the TGI with SW-620 colon, in the assay with KM12 colon, in the assay with OVCAR-5 ovarian, in the assay with UACC-62 melanoma, in the assay on MDA-MB-231 breast and in the assay on SF-268 CNS was over 100 µM each time. Also, the TGI in the assay on SNB-75 CNS, with SF-539 CNS, in the assay with EKVX NSCLC, in the assay on NCI-H522 lung, in the assay on RPMI-8226 leukemia and with SF-295 CNS was over 100 µM each time. In addition, the TGI with A549 NSCLC, in the assay on OVCAR-4 ovarian, in the assay with T-47D breast, with OVCAR-8 ovarian, with SNB-19 CNS and with MDA-N was over 100 µM in each case.
Take `Cc1ccc(/C=N/Nc2cnccn2)s1`: the TGI in the assay with SW-620 colon, with KM12 colon, in the assay on OVCAR-5 ovarian, in the assay with UACC-62 melanoma, in the assay with MDA-MB-231 breast and in the assay on SF-268 CNS was over 100 µM throughout. Besides, the TGI in the assay with SNB-75 CNS, in the assay with SF-539 CNS, in the assay with EKVX NSCLC, in the assay with NCI-H522 lung, in the assay with RPMI-8226 leukemia and in the assay on SF-295 CNS was over 100 µM in each case. For the same compound, the TGI with A549 NSCLC, in the assay with OVCAR-4 ovarian, in the assay on T-47D breast, in the assay with OVCAR-8 ovarian, in the assay on SNB-19 CNS and with MDA-N was over 100 µM in each case.
For the compound `CCOC(=O)c1sc2c(c1OC(=O)c1cccs1)c(=O)n(-c1ccccc1)c(=S)n2-c1ccccc1`, the TGI with SW-620 colon is 65.5 µM; with KM12 colon, 42.3 µM; in the assay on OVCAR-5 ovarian, 50.7 µM; with UACC-62 melanoma, 33.4 µM; in the assay on MDA-MB-231 breast, 41.8 µM; with SF-268 CNS, over 100 µM. Moreover, the TGI is over 100 µM in the assay with SNB-75 CNS; 36 µM with SF-539 CNS; 79.5 µM with EKVX NSCLC; 27.1 µM in the assay with NCI-H522 lung; 31.3 µM in the assay on RPMI-8226 leukemia; over 100 µM in the assay on SF-295 CNS. For the same compound, the TGI was 38.8 µM in the assay on A549 NSCLC; 27.5 µM in the assay on OVCAR-4 ovarian; over 100 µM in the assay on T-47D breast; 44.9 µM in the assay on OVCAR-8 ovarian; 88.5 µM in the assay with SNB-19 CNS; over 100 µM in the assay on MDA-N.
With `CC(C)[C@@H]1NC(=O)[C@H]2N=C(O[C@@H]2C)[C@@H]2CCCN2C(=O)[C@H](Cc2ccccc2)NC(=O)[C@@H]2CSC(=N2)[C@@H](Cc2ccccc2)NC(=O)[C@@H]2CSC1=N2`, the TGI in the assay with SW-620 colon, in the assay on KM12 colon, with OVCAR-5 ovarian, in the assay with UACC-62 melanoma, in the assay with MDA-MB-231 breast and in the assay with SF-268 CNS was over 50 µM throughout. The TGI in the assay on SNB-75 CNS was 6.28 µM; in the assay with SF-539 CNS, over 50 µM; in the assay with EKVX NSCLC, over 50 µM; with NCI-H522 lung, over 50 µM; in the assay on RPMI-8226 leukemia, 32.1 µM; in the assay on SF-295 CNS it was over 50 µM. Besides, the TGI with A549 NSCLC, with OVCAR-4 ovarian, in the assay with T-47D breast, in the assay on OVCAR-8 ovarian, in the assay with SNB-19 CNS and in the assay with MDA-N was over 50 µM throughout.
As for `CCC(NC(C)c1ccccc1)C(O)c1ccc(OCc2ccccc2)c(OCc2ccccc2)c1` (centres undefined), the TGI came out at 20.3 µM in the assay with SW-620 colon; 18 µM in the assay on KM12 colon; 26.3 µM in the assay with OVCAR-5 ovarian; 33.7 µM in the assay with UACC-62 melanoma; 21.2 µM in the assay on MDA-MB-231 breast; 36.4 µM with SF-268 CNS. Also, the TGI in the assay with SNB-75 CNS was found to be 23.2 µM; with SF-539 CNS, 32.8 µM; in the assay with EKVX NSCLC, 31.2 µM; in the assay on NCI-H522 lung it was 35.1 µM; in the assay on RPMI-8226 leukemia, 10.7 µM; with SF-295 CNS, 35.4 µM. Besides, the TGI with A549 NSCLC was 29.8 µM; with OVCAR-4 ovarian it was 33.5 µM; in the assay with T-47D breast it was 40.1 µM; in the assay with OVCAR-8 ovarian, 30.1 µM; in the assay with SNB-19 CNS, 28.6 µM; with MDA-N it was 30.3 µM.
`C=Cc1c(C)c(OC)cc2c1Oc1ccc(OC)c(C)c1CC2`: the TGI in the assay with SW-620 colon, in the assay with KM12 colon, with OVCAR-5 ovarian, in the assay on UACC-62 melanoma, with MDA-MB-231 breast and in the assay with SF-268 CNS was over 100 µM each time. Further, the TGI with SNB-75 CNS, in the assay on SF-539 CNS, with EKVX NSCLC, with NCI-H522 lung, in the assay with RPMI-8226 leukemia and in the assay on SF-295 CNS was over 100 µM each time. The TGI with A549 NSCLC, with OVCAR-4 ovarian, in the assay with T-47D breast, in the assay on OVCAR-8 ovarian, in the assay on SNB-19 CNS and in the assay on MDA-N was over 100 µM throughout.
